In US10040781B2, “Tank-binding kinase inhibitor compounds” (Gilead Sciences, Inc., priority 2014, dated 2018) one finds IC50 data, which are given here for 24 compounds.

One assay has as its target hJAK2 (Homo sapiens (Human), UniProt O60674). Kind of assay: hJAK2 LANCE TR-FRET enzymatic assay. The assay is classed as biochemical. Conditions: read-out: JAK2 IC50. For orientation: Time-resolved FRET reads energy transfer from a long-lived donor to a nearby acceptor.
The next assay concerns the target TBK1 (Homo sapiens (Human), UniProt Q9UHD2). Kind of assay: TBK1 TR-FRET enzymatic assay.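 Further: phosphorylation of a biotinylated Ser/Thr peptide by purified full-length recombinant TBK1, read by TR-FRET after 240 min at 25 °C, IC50 is the geometric mean of at least four runs.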

Chain of hJAK2 (O60674 whole entry): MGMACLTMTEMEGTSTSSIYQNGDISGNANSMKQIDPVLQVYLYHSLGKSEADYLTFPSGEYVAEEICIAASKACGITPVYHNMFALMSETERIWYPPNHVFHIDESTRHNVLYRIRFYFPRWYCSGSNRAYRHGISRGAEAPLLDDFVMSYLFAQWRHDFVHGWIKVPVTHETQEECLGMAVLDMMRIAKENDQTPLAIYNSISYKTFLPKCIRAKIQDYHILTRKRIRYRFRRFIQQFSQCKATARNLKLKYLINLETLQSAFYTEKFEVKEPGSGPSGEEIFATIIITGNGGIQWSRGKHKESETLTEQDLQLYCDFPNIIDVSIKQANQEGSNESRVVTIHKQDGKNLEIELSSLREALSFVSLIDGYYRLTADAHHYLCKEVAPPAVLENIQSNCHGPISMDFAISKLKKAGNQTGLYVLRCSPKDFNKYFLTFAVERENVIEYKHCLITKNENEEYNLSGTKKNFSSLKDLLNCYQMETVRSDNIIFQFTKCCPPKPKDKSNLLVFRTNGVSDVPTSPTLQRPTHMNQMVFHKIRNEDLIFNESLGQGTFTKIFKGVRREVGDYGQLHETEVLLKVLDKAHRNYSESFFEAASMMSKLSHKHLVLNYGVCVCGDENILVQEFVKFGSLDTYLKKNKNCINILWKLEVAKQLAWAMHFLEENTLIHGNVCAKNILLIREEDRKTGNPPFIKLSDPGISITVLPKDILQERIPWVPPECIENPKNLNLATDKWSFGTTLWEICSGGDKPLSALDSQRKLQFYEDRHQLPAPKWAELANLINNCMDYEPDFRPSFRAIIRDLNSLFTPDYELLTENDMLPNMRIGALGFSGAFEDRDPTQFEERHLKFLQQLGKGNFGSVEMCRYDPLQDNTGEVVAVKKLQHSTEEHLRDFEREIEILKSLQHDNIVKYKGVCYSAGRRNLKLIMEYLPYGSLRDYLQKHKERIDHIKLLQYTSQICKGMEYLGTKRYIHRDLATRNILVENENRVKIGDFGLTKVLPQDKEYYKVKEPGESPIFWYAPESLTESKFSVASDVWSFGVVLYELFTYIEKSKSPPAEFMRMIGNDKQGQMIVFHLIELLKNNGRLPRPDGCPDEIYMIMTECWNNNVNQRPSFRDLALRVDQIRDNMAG
Chain of TBK1 (Q9UHD2 whole entry): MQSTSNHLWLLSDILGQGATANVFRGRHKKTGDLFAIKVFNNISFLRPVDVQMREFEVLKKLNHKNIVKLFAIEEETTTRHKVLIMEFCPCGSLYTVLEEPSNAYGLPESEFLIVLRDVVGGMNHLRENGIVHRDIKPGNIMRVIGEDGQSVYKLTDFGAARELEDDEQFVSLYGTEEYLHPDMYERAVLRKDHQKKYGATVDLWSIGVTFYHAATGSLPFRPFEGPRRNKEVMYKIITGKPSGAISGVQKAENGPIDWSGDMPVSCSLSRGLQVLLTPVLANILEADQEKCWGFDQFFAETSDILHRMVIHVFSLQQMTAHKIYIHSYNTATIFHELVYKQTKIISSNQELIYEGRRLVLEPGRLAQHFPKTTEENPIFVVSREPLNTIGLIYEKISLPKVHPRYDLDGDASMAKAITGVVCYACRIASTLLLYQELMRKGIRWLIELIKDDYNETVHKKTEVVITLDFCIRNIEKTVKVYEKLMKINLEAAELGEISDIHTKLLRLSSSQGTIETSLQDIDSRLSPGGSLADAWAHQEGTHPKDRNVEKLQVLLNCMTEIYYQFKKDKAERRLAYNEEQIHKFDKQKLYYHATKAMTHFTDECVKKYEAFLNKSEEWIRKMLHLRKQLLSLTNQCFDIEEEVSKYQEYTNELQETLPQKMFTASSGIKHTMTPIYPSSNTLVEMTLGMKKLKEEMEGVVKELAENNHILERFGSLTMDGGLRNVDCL

As for `COCCNc1ccc(Nc2ncnc(-c3ccc(O[C@H]4CCN(C(=O)[C@H](C)O)C[C@H]4F)c(C#N)c3)n2)cn1` [Example 543, 2-(((3R,4S)-3-fluoro-1-((S)-2-hydroxypropanoyl)piperidin-4-yl)oxy)-5-(4-((6-((2-methoxyethyl)amino)pyridin-3-yl)amino)-1,3,5-triazin-2-yl)benzonitrile], the half-inhibitory concentration (IC50) on hJAK2 is no less than 1000 nM; on TBK1 it was 12 nM.
As to `N#Cc1cc(-c2ncnc(Nc3cccc(N4CCOCC4)c3)n2)ccc1O[C@@H]1CCN(C(=O)CO)C1` [Example 81, (R)-2-((1-(2-hydroxyacetyl)pyrrolidin-3-yl)oxy)-5-(4-((3-morpholinophenyl)amino)-1,3,5-triazin-2-yl)benzonitrile], the IC50 is 290 nM on hJAK2 and 27 nM against TBK1.
On to `C[C@H](O)C(=O)N1CC[C@H](Oc2ccc(-c3ncnc(Nc4ccc(N5CCNCC5)cc4)n3)cc2C#N)[C@H](F)C1` [Example 497, 2-(((3R,4S)-3-fluoro-1-((S)-2-hydroxypropanoyl)piperidin-4-yl)oxy)-5-(4-((4-(piperazin-1-yl)phenyl)amino)-1,3,5-triazin-2-yl)benzonitrile], for which the 50% inhibitory concentration (IC50) at hJAK2 was 358 nM; on TBK1 it was 1 nM.
On to `COc1cc(Nc2ncnc(-c3ccc(O[C@H]4CCN(C(=O)[C@@H](O)CO)C[C@H]4F)c(C#N)c3)n2)ccc1N1CCN(C2COC2)CC1` [Example 578, 2-(((3R,4S)-1-((S)-2,3-dihydroxypropanoyl)-3-fluoropiperidin-4-yl)oxy)-5-(4-((3-methoxy-4-(4-(oxetan-3-yl)piperazin-1-yl)phenyl)amino)-1,3,5-triazin-2-yl)benzonitrile], for which the 50% inhibitory concentration (IC50) at hJAK2 stood at 70 nM.
The same measure, in the same setting: for `C[C@H](O)C(=O)N1CC[C@@H](Oc2ccc(-c3ncnc(Nc4ccc(N5CCN(C6COC6)CC5)cc4)n3)cc2C#N)[C@H](F)C1` [Example 234, 2-(((3R,4R)-3-fluoro-1-((S)-2-hydroxypropanoyl)piperidin-4-yl)oxy)-5-(4-((4-(4-(oxetan-3-yl)piperazin-1-yl)phenyl)amino)-1,3,5-triazin-2-yl)benzonitrile] the value was 669 nM.
Turning to `N#Cc1cc(-c2ncnc(Nc3ccc(N4CCN(C5COC5)CC4)cc3)n2)ccc1OC1CCN(C(=O)c2ncc[nH]2)CC1(F)F` (stereo not drawn) [Example 163, 2-((3,3-difluoro-1-(1H-imidazole-2-carbonyl)piperidin-4-yl)oxy)-5-(4-((4-(4-(oxetan-3-yl)piperazin-1-yl)phenyl)amino)-1,3,5-triazin-2-yl)benzonitrile], the IC50 on hJAK2 was found to be 248 nM.
On the same count and under the same terms, to `C[C@@H](O)C(=O)N1CC[C@H](Oc2ccc(-c3ncnc(Nc4ccc(N5CCN(C6COC6)CC5)cc4)n3)cc2C#N)[C@H](F)C1` [Example 464, 2-(((3R,4S)-3-fluoro-1-((R)-2-hydroxypropanoyl)piperidin-4-yl)oxy)-5-(4-((4-(4-(oxetan-3-yl)piperazin-1-yl)phenyl)amino)-1,3,5-triazin-2-yl)benzonitrile] belongs 332 nM.
The same measure, in the same setting: to `N#Cc1cc(-c2ncnc(Nc3ccc(N4CCN(C5COC5)CC4)cc3)n2)ccc1O[C@H]1CCN(C(=O)[C@@H]2C[C@@H](O)C(=O)N2)C[C@H]1F` [Example 403, 2-(((3R,4S)-3-fluoro-1-((2S,4R)-4-hydroxy-5-oxopyrrolidine-2-carbonyl)piperidin-4-yl)oxy)-5-(4-((4-(4-(oxetan-3-yl)piperazin-1-yl)phenyl)amino)-1,3,5-triazin-2-yl)benzonitrile] belongs 858 nM; to `N#Cc1cc(-c2ncnc(Nc3ccc(N4CCN(C5COC5)CC4)cc3)n2)ccc1O[C@H]1CCN(C(=O)[C@@H]2C[C@H](O)C(=O)N2)C[C@H]1F` [Example 410, 2-(((3R,4S)-3-fluoro-1-((2S,4S)-4-hydroxy-5-oxopyrrolidine-2-carbonyl)piperidin-4-yl)oxy)-5-(4-((4-(4-(oxetan-3-yl)piperazin-1-yl)phenyl)amino)-1,3,5-triazin-2-yl)benzonitrile], 450 nM; to `C[C@H](O)C(=O)N1CC[C@H](Oc2ccc(-c3ncnc(Nc4ccc(O[C@H]5CCN(C6COC6)C[C@H]5F)cc4)n3)cc2C#N)[C@H](F)C1` [Example 401, 2-(((3R,4S)-3-fluoro-1-((S)-2-hydroxypropanoyl)piperidin-4-yl)oxy)-5-(4-((4-(((3R,4S)-3-fluoro-1-(oxetan-3-yl)piperidin-4-yl)oxy)phenyl)amino)-1,3,5-triazin-2-yl)benzonitrile], no less than 1000 nM.
Same read-out and setting: to `CC1(C)CN(C(=O)CO)CC[C@@H]1Oc1ccc(-c2ncnc(Nc3ccc(N4CCN(C5COC5)CC4)cc3)n2)cc1C#N` (single isomer, unassigned) [Example 175] belongs 397 nM; to `N#Cc1cc(-c2ncnc(Nc3ccc(N4CCN(C5COC5)CC4)cc3)n2)ccc1O[C@H]1CCN(C(=O)c2cc(Cl)n[nH]2)C[C@H]1F` [Example 324, 2-(((3R,4S)-1-(3-chloro-1H-pyrazole-5-carbonyl)-3-fluoropiperidin-4-yl)oxy)-5-(4-((4-(4-(oxetan-3-yl)piperazin-1-yl)phenyl)amino)-1,3,5-triazin-2-yl)benzonitrile], 237 nM.
Turning to `CN1CCN(c2ccc(Nc3ncnc(-c4ccc(OC5CCOCC5)c(C#N)c4)n3)cc2)CC1` [Example 12, 5-(4-((4-(4-methylpiperazin-1-yl)phenyl)amino)-1,3,5-triazin-2-yl)-2-((tetrahydro-2H-pyran-4-yl)oxy)benzonitrile], the half-inhibitory concentration (IC50) at hJAK2 stood at 162 nM.
Take `COc1cc(Nc2ncnc(-c3ccc(OC4CCOCC4)c(C#N)c3)n2)ccc1N1CCN(C)CC1` [Example 4, 5-(4-((3-methoxy-4-(4-methylpiperazin-1-yl)phenyl)amino)-1,3,5-triazin-2-yl)-2-((tetrahydro-2H-pyran-4-yl)oxy)benzonitrile]: on hJAK2, the IC50 turned out to be 53 nM.
On the same count and under the same terms, for `C[C@H]1CN(C2COC2)CCN1c1ccc(Nc2ncnc(-c3ccc(O[C@H]4CCN(C(=O)[C@@H]5CCC(=O)N5)C[C@H]4F)c(C#N)c3)n2)cc1` [Example 381, 2-(((3R,4S)-3-fluoro-1-((S)-5-oxopyrrolidine-2-carbonyl)piperidin-4-yl)oxy)-5-(4-((4-((S)-2-methyl-4-(oxetan-3-yl)piperazin-1-yl)phenyl)amino)-1,3,5-triazin-2-yl)benzonitrile] the value was no less than 1000 nM; for `Cc1cc(Nc2ncnc(-c3ccc(O[C@H]4CCN(C(=O)[C@@H](O)CO)C[C@H]4F)c(C#N)c3)n2)ccc1N1CCN(C2COC2)CC1` [Example 575, 2-(((3R,4S)-1-((S)-2,3-dihydroxypropanoyl)-3-fluoropiperidin-4-yl)oxy)-5-(4-((3-methyl-4-(4-(oxetan-3-yl)piperazin-1-yl)phenyl)amino)-1,3,5-triazin-2-yl)benzonitrile], 62 nM.
`C[C@H](O)C(=O)N1CC[C@H](Oc2ccc(-c3ncnc(Nc4ccc(N5CCN6CCOC[C@H]6C5)cc4)n3)cc2C#N)[C@H](F)C1` [Example 619, 2-(((3R,4S)-3-fluoro-1-((S)-2-hydroxypropanoyl)piperidin-4-yl)oxy)-5-(4-((4-((R)-hexahydropyrazino[2,1-c][1,4]oxazin-8(1H)-yl)phenyl)amino)-1,3,5-triazin-2-yl)benzonitrile]: the IC50 at hJAK2 came out at 364 nM.
As to `Cc1n[nH]c(C(=O)N2CC[C@H](Oc3ccc(-c4ncnc(Nc5ccc(N6CCN(C7COC7)CC6)cc5)n4)cc3C#N)[C@H](F)C2)n1` [Example 451, 2-(((3R,4S)-3-fluoro-1-(3-methyl-1H-1,2,4-triazole-5-carbonyl)piperidin-4-yl)oxy)-5-(4-((4-(4-(oxetan-3-yl)piperazin-1-yl)phenyl)amino)-1,3,5-triazin-2-yl)benzonitrile], at hJAK2, the IC50 amounted to 90 nM.
As for `N#Cc1cc(-c2ncnc(Nc3ccc(N4CCN(C5COC5)CC4)cc3)n2)ccc1O[C@H]1CCN(C(=O)CO)CC1(F)F` (single isomer, unassigned) [Example 152], the concentration for half-maximal inhibition (IC50) at hJAK2 came to 75 nM.
As for `C[C@H](O)C(=O)N1CC[C@H](Oc2ccc(-c3ncnc(Nc4ccc(N5CCN(C6COC6)CC5)c(Cl)c4)n3)cc2C#N)[C@H](F)C1` [Example 378, 5-(4-((3-chloro-4-(4-(oxetan-3-yl)piperazin-1-yl)phenyl)amino)-1,3,5-triazin-2-yl)-2-(((3R,4S)-3-fluoro-1-((S)-2-hydroxypropanoyl)piperidin-4-yl)oxy)benzonitrile], the IC50 on hJAK2 was 173 nM.
Same read-out and setting: to `N#Cc1cc(-c2ncnc(Nc3ccc(N4CCN(C5COC5)CC4)cc3)n2)ccc1O[C@H]1CCN(C(=O)[C@@H]2C[C@@H](F)C(=O)N2)C[C@H]1F` [Example 405, 2-(((3R,4S)-3-fluoro-1-((2S,4R)-4-fluoro-5-oxopyrrolidine-2-carbonyl)piperidin-4-yl)oxy)-5-(4-((4-(4-(oxetan-3-yl)piperazin-1-yl)phenyl)amino)-1,3,5-triazin-2-yl)benzonitrile] belongs no less than 1000 nM; to `N#Cc1cc(-c2ncnc(Nc3ccc(N4CCN(C5COC5)CC4)cc3)n2)ccc1OC1CCN(C(=O)CO)CC1(F)F` (racemic) [Example 151, 2-((3,3-difluoro-1-(2-hydroxyacetyl)piperidin-4-yl)oxy)-5-(4-((4-(4-(oxetan-3-yl)piperazin-1-yl)phenyl)amino)-1,3,5-triazin-2-yl)benzonitrile], 122 nM.
As to `CC1(C)CN(C(=O)CO)CCC1Oc1ccc(-c2ncnc(Nc3ccc(N4CCN(C5COC5)CC4)cc3)n2)cc1C#N` (racemic) [Example 174, 2-((1-(2-hydroxyacetyl)-3,3-dimethylpiperidin-4-yl)oxy)-5-(4-((4-(4-(oxetan-3-yl)piperazin-1-yl)phenyl)amino)-1,3,5-triazin-2-yl)benzonitrile], at hJAK2, the IC50 stood at 160 nM.
On the same count and under the same terms, to `N#Cc1cc(-c2ncnc(Nc3ccc(N4CCN(C5COC5)CC4)cc3)n2)ccc1O[C@H]1CCN(C(=O)[C@@H]2CSC(=O)N2)C[C@H]1F` [Example 530, 2-(((3R,4S)-3-fluoro-1-((R)-2-oxothiazolidine-4-carbonyl)piperidin-4-yl)oxy)-5-(4-((4-(4-(oxetan-3-yl)piperazin-1-yl)phenyl)amino)-1,3,5-triazin-2-yl)benzonitrile] belongs 289 nM.

For orientation: IC50 means the point on the concentration scale where inhibition reaches its midpoint.
